Where two headings read alike, the source gives them in different places.

As usually defined, the AUC(0-t) is the area under the concentration-time curve up to a stated or last time point. Broadly, the Cmax is the peak of the concentration-time curve. As usually defined, the Tmax is the time at which the peak concentration occurs. As a reminder, the bioavailability is dose-corrected exposure relative to a reference, in per cent.

Data set [1] in a line: PK in U-87MG subcutaneous tumor model of BALB/c nude mouse. Conditions: female, plasma, U87MG tumor-bearing nude mouse, PO QD 3 weeks, after last administration (Day 22). In kind it is in vivo. How it is done: Test animal: female nude mouse (BALB/c), 10 mice/dose group/test compound, weight: 18-22 g/mouse.
U87MG cells from ATCC were cultured in MEM medium containing 10% fetal bovine serum; the cells were digested with trypsin containing EDTA by conventional methods; the cells were passaged for two generations every week, and were continuously cultured in a 37° C., 5% CO2 incubator.
Tumor cells in exponential growth phase were collected; U87MG cells were adjusted with PBS and matrigel at a ratio of 1:1 to a concentration of 5×10^7/mL; 0.1 mL cell suspension was seeded subcutaneously to right back of each mouse by injection with a 1 mL syringe. Tumor volumes were observed and measured, and the average tumor volume of U87MG reached about 200 mm^3 8 days after seeding; the tumor-bearing mice were grouped and were treated by oral administration of test compounds, at a dose of 0.1 mL/10 g body weight.
Blood collection: blood was collected from intraocular canthus. After the last administration (Day 22) of control agent and compound 1, blood/tumor was collected at the same time points, wherein as to 10 nude mice for each dose group, one was for standby, and the other 9 mice were divided into three groups, i.e., A, B and C groups.
A group (No. 1-3): blood was collected before administration, and at 1 h and 2 h after administration, and the mouse was sacrificed after blood collection at 2 h;
B group (No. 4-6): blood was collected at 15 min, 4 h and 6 h after administration, and the mouse was sacrificed after blood collection at 6 h;
C group (No. 7-9): blood was collected at 30 min, 10 h and 24 h after administration, and the mouse was sacrificed after blood collection at 24 h;
300 μL whole blood was collected at each time point, added to an anticoagulation tube containing K2EDTA, and centrifuged at 8000 r/min in a high speed centrifuge for 6 min to separate the plasma; the plasma was stored in a refrigerator at −80° C.
The plasma samples of control agent and compound 1 were analyzed by precipitation of protein: 30 μL plasma was added to a 96-deep well plate, and 200 μL internal standard (acetonitrile solution containing 25 ng/mL PD0332991) was added; the resultant mixture was vortexed for 3 min at 1500 r/min, and centrifuged for 20 min at 4000 r/min; to 100 μL supernatant, 100 μL water was added; the resultant mixture was mixed homogeneously under vortexing and analyzed by LC-MS/MS.

The nature of data set [2]: Pharmacokinetics in nude mouse (IV and PO). Type of data set: in vivo. Conditions: female, BALB/c nude, plasma; for Vd: read-out: Vss; for bioavailability: read-out: F (absolute bioavailability). On the procedure: Test animal: female nude mouse (BALB/c); control agent: 3 mice/administration route at each time point, weight: 22-25 g/mouse; Compound 1: 3 mice/administration route at each time point, weight: 22-25 g/mouse; Compound 6-1: 6 mice/administration route/test compound, weight: 18-26 g/mouse.
Control agent/Compound 1, IV administration group: before administration, 0.083, 0.25, 0.5, 1, 2, 4, 6, 8, 24, and 30 h after administration; PO administration group (10 mg/kg): before administration, 0.167, 0.5, 1, 2, 4, 6, 8, 24, and 30 h after administration.
Compound 1, PO administration group (100 mg/kg): 0.167, 0.5, 1, 2, 4, 6, 8, 24, 30, and 48 h after administration.
Compound 6-1, IV administration group (2.5 mg/kg) and PO administration group (10 mg/kg): 0.083, 0.25, 0.5, 1, 2, 4, 6, 8 and 24 h after administration; Compound 6-1, PO administration group (100 mg/kg): 0.083, 0.25, 0.5, 1, 2, 4, 6, 8, 24, 30, 48 h after administration.
Control agent/Compound 1: 300 μL whole blood was collected from intraocular canthus at each time point, and was centrifuged at 8000 r/min for 6 min in a high speed centrifuge to separate the plasma; the plasma was stored in a refrigerator at −80° C. Compound 6-1: 60 μL whole blood was collected from intraocular canthus at each time point, and was placed in an anticoagulation tube containing anticoagulant agent K2EDTA; the blood sample was centrifuged at 8000 r/min for 6 min to obtain a plasma sample.
The plasma samples of control agent and compound 1 were analyzed by precipitation of protein: to 50 μL plasma, 200 μL internal standard (acetonitrile solution containing 500 ng/mL Warfarin) was added; the resultant mixture was vortexed for 3 min at 1500 r/min, and centrifuged for 5 min at 13000 r/min; to 100 μL supernatant, 400 μL water was added; the resultant mixture was mixed homogeneously under vortexing and analyzed by LC-MS/MS.
The plasma sample of compound 6-1 was analyzed by precipitation of protein: to a suitable amount of plasma, a given volume of internal standard solution was added; the resultant mixture was vortexed and centrifuged; the supernatant was diluted by adding a given volume of water; the resultant mixture was mixed homogeneously under vortexing and analyzed by LC-MS/MS.

With `CCN1CCN(Cc2cnc(Nc3cc(-c4cc(F)c5nc(C)n(C(C)C)c5c4)c(F)cn3)nc2)CC1` [Compound 1, 5-((4-ethylpiperazin-1-yl)methyl)-N-(5-fluoro-4-(4-fluoro-1-isopropyl-2-methyl-1H-benzo[d]imidazol-6-yl)pyridin-2-yl)pyrimidin-2-amine], in data set [1] (50 mg/kg), the AUC(0-t) was determined as 23500 ng·h/mL, the Cmax stood at 1770 ng/mL and the Tmax turned out to be 2 h. In addition, in data set [1] (100 mg/kg), the exposure AUC(0-t) is 34800 ng·h/mL, the highest level (Cmax) was 2180 ng/mL and the Tmax amounted to 1 h. Moreover, in data set [1] (200 mg/kg), the exposure AUC(0-t) stood at 49700 ng·h/mL, the concentration peaked (Cmax) at 2510 ng/mL and the Tmax amounted to 6 h. In data set [2] (IV, 5 mg/kg), the exposure AUC(0-t) came to 2080 ng·h/mL, the clearance is 38.2 mL/min/kg and the Vd amounted to 4.61 L/kg. For the same compound, in data set [2] (PO, 10 mg/kg), the AUC(0-t) came to 2760 ng·h/mL, the highest level (Cmax) was 675 ng/mL, the Tmax came out at 2 h and the bioavailability is 65.5%. Also, in data set [2] (PO, 100 mg/kg), the AUC(0-t) turned out to be 33900 ng·h/mL, the maximum concentration (Cmax) was 3080 ng/mL, the time to peak (Tmax) worked out at 2 h and the bioavailability was determined as 77.9%.

With `CCN1CCN(Cc2ccc(Nc3ncc(F)c(-c4cc(F)c5nc(C)n(C(C)C)c5c4)n3)nc2)CC1` [LY2835219, reference compound], in data set [1] (50 mg/kg), the exposure AUC(0-t) was 19400 ng·h/mL, the Cmax amounted to 1160 ng/mL and the time to peak (Tmax) turned out to be 1 h. Further, in data set [1] (100 mg/kg), the area under the curve AUC(0-t) was 27900 ng·h/mL, the Cmax was determined as 1530 ng/mL and the Tmax is 4 h. In data set [2] (IV, 5 mg/kg), the AUC(0-t) worked out at 1590 ng·h/mL, the clearance was 50.2 mL/min/kg and the Vd worked out at 5.79 L/kg. In data set [2] (PO, 10 mg/kg), the AUC(0-t) turned out to be 1310 ng·h/mL, the concentration peaked (Cmax) at 368 ng/mL, the time of peak concentration (Tmax) came to 0.5 h and the bioavailability is 41.1%.

The record behind these values is patent US9949976B2, “Kinase inhibitor and use thereof” (Sihuan Pharmaceutical Holdings Group Ltd., priority 2013, dated 2018).
